Values joined by “and” are separate entries in the source; they are usually repeats but may differ in a detail not shown here. Identical values can stand only once. Like-named read-outs stand apart in the source and are kept apart here.
What was measured:
D. magna [1] = settings: Table S1; footnote not given; cited from earlier work
D. magna [2] = settings: cited from earlier work
Daphnia magna = assay type: in vivo; settings: for % inhibition, avr.: average of vessels; for #dead offspring per mother / #live offspring per mother: per vessel; for appearance of mother: vessel 3; for body burden at the end of the depuration phase: 12-day depuration; for log BAF*L5%: 21 days of exposure, assuming steady-state; for % reproductive inhibition: Fig. S10; for body burden: after 21-day exposure; for removed fraction of accumulated body burden: after 12 days of depuration
Description: To maximize data output, we combined chronic toxicity and bioaccumulation tests in an integrated approach where the chronic toxicity test also served as an uptake phase followed by a depuration/recovery phase (Table S3). This simultaneous bioaccumulation/chronic toxicity test was performed for BNT and DNF. Of the 10 replicates per exposure level, five animals were sampled on day 21 to measure accumulated chemical concentrations and wet weights. The remaining five were transferred to clean media without test chemicals for a 12-day depuration phase under conditions identical with the uptake phase except for the absence of test chemicals. Juvenile counts were recorded daily. At the end of the depuration period, five Daphnia were collected, weighed, and analyzed for body burden (i.e., concentration of test chemical per unit of body weight) using the extraction procedure described in Section 2.7.
For quantification of body burdens, 5 daphnids were thawed, homogenized in 5 mL Milli-Q water (IKA T-25 digital Ultra-TURRAX) and extracted twice with 2 mL of hexane. The extracts were combined, dried with Na2SO4, concentrated under a nitrogen stream, and spiked with internal standard.

[3] = after 11.96 µg/L, depuration phase day 1
[4] = after 11.96 µg/L, depuration phase day 9
[5] = after DNF 1.43 µg/L exposure, 12-day depuration phase

c1ccc2c(c1)ccc1[nH]c3ccccc3c12 [BCRB, 7H-benzo[c]carbazole]
lowest PNEC* (D. magna [1]): 0.017 µg/L

c1ccc2c(c1)ccc1sc3ccccc3c12 [BNT, benzo[b]naphtho[1,2-d]thiophene]
effect on D. magna immobilization (D. magna [2]; acute test, at water solubility): 35%
%offspring mortality (Daphnia magna; 11.96 µg/L, 21-day exposure): 28.01%
#total live offspring (Daphnia magna; 11.96 µg/L, all vessels, exposure day 9): 32
#total live offspring (Daphnia magna; 11.96 µg/L, all vessels, exposure day 12): 46
#total live offspring (Daphnia magna; 11.96 µg/L, all vessels, exposure day 13): 42
#total live offspring (Daphnia magna; 11.96 µg/L, all vessels, exposure day 14): 15
#total live offspring (Daphnia magna; 11.96 µg/L, all vessels, exposure day 15): 0
#total live offspring (Daphnia magna; 11.96 µg/L, all vessels, exposure day 16): 77
#total live offspring (Daphnia magna; 11.96 µg/L, all vessels, exposure day 19): 56
#total live offspring (Daphnia magna; 11.96 µg/L, all vessels, exposure day 20): 46
#total live offspring (Daphnia magna; 11.96 µg/L, all vessels, exposure day 21): 20
#total live offspring (Daphnia magna; 11.96 µg/L, all vessels, whole 21-day exposure): 329
average increase of live offspring (Daphnia magna; 11.96 µg/L, cumulative, exposure day 9): 3.2
average increase of live offspring (Daphnia magna; 11.96 µg/L, cumulative, exposure day 12): 8
average increase of live offspring (Daphnia magna; 11.96 µg/L, cumulative, exposure day 13): 12
average increase of live offspring (Daphnia magna; 11.96 µg/L, cumulative, exposure day 14): 14
average increase of live offspring (Daphnia magna; 11.96 µg/L, cumulative, exposure day 15): 14
average increase of live offspring (Daphnia magna; 11.96 µg/L, cumulative, exposure day 16): 23
average increase of live offspring (Daphnia magna; 11.96 µg/L, cumulative, exposure day 19): 29
average increase of live offspring (Daphnia magna; 11.96 µg/L, cumulative, exposure day 20): 34
average increase of live offspring (Daphnia magna; 11.96 µg/L, cumulative, exposure day 21): 36
% inhibition, avr. (Daphnia magna; 11.96 µg/L, live offspring, 21-day exposure): 49.3%
#average live offspring (Daphnia magna; 11.96 µg/L, per mother, 21-day exposure): 36
#dead offspring per mother (Daphnia magna; 11.96 µg/L, exposure day 15): 0
#live offspring per mother (Daphnia magna; 11.96 µg/L, exposure day 15): 0
appearance of mother (Daphnia magna; 11.96 µg/L, exposure day 5): very small/pale
appearance of mother (Daphnia magna; 11.96 µg/L, exposure day 7): very small
status of mother (Daphnia magna; 11.96 µg/L, vessel 4, exposure day 13): dead
body burden at the end of the depuration phase (Daphnia magna): below the LOQ
log BAF*L5% (Daphnia magna): 4.58 ± 0.05 and 4.58
% reproductive inhibition (Daphnia magna; BNT 4.3 µg/L, entire test (days 1-33)): 20%
% reproductive inhibition (Daphnia magna; BNT 4.3 µg/L, only depuration phase (days 21-33)): 6%
% reproductive inhibition (Daphnia magna; BNT 4.3 µg/L, only uptake phase (days 0-21)): 36%
% inhibition, avr. (Daphnia magna; BNT 4.72 µg/L, 21-day exposure): 35.5%
% reproductive inhibition (Daphnia magna; BNT 12 µg/L, entire test (days 1-33)): 32%
% reproductive inhibition (Daphnia magna; BNT 12 µg/L, only depuration phase (days 21-33)): 15%
% reproductive inhibition (Daphnia magna; BNT 12 µg/L, only uptake phase (days 0-21)): 49%
%offspring mortality (Daphnia magna; after 11.96 µg/L, 12-day depuration phase): 3.94%
#total live offspring (Daphnia magna; after 11.96 µg/L, all vessels, depuration phase day 1): 0
#total live offspring (Daphnia magna; after 11.96 µg/L, all vessels, depuration phase day 2): 61
#total live offspring (Daphnia magna; after 11.96 µg/L, all vessels, depuration phase day 5): 35
#total live offspring (Daphnia magna; after 11.96 µg/L, all vessels, depuration phase day 6): 63
#total live offspring (Daphnia magna; after 11.96 µg/L, all vessels, depuration phase day 7): 37
#total live offspring (Daphnia magna; after 11.96 µg/L, all vessels, depuration phase day 8): 1
#total live offspring (Daphnia magna; after 11.96 µg/L, all vessels, depuration phase day 9): 0
#total live offspring (Daphnia magna; after 11.96 µg/L, all vessels, depuration phase day 12): 120
#total live offspring (Daphnia magna; after 11.96 µg/L, all vessels, whole 12-day depuration phase): 317
average increase of live offspring (Daphnia magna; after 11.96 µg/L, cumulative since exposure start, depuration phase day 1): 36
average increase of live offspring (Daphnia magna; after 11.96 µg/L, cumulative since exposure start, depuration phase day 2): 48
average increase of live offspring (Daphnia magna; after 11.96 µg/L, cumulative since exposure start, depuration phase day 5): 55
average increase of live offspring (Daphnia magna; after 11.96 µg/L, cumulative since exposure start, depuration phase day 6): 68
average increase of live offspring (Daphnia magna; after 11.96 µg/L, cumulative since exposure start, depuration phase day 7): 75
average increase of live offspring (Daphnia magna; after 11.96 µg/L, cumulative since exposure start, depuration phase day 8): 76
average increase of live offspring (Daphnia magna; after 11.96 µg/L, cumulative since exposure start, depuration phase day 9): 76
average increase of live offspring (Daphnia magna; after 11.96 µg/L, cumulative since exposure start, depuration phase day 12): 100
#average live offspring (Daphnia magna; after 11.96 µg/L, per mother, 12-day depuration phase): 63
#dead offspring per mother (Daphnia magna; [3]): 0
#live offspring per mother (Daphnia magna; [3]): 0
#dead offspring per mother (Daphnia magna; after 11.96 µg/L, depuration phase day 8): 0
#dead offspring per mother (Daphnia magna; [4]): 0
#live offspring per mother (Daphnia magna; [4]): 0
body burden (Daphnia magna; CW = 4.7 μg L^–1): 50 mg kg^–1
body burden (Daphnia magna; CW = 12 μg L^–1): 150 mg kg^–1 wet weight
removed fraction of accumulated body burden (Daphnia magna): ≥ 99.98%

c1ccc2c(c1)ccc1oc3ccc4ccccc4c3c12 [DNF, dinaphtho[2,1-b:1′,2′-d]furan]
acute effects on D. magna immobilization (D. magna [2]; controlled exposure conditions): no effects were observed
body burden at the end of the depuration phase (Daphnia magna): below the LOQ
log BAF*L5% (Daphnia magna): 4.20
% reproductive inhibition (Daphnia magna; DNF 1.43 µg/L, entire test (days 1-33)): 35%
% reproductive inhibition (Daphnia magna; DNF 1.43 µg/L, only depuration phase (days 21-33)): 14%
% reproductive inhibition (Daphnia magna; DNF 1.43 µg/L, only uptake phase (days 0-21)): 57%
%offspring mortality (Daphnia magna; DNF 1.43 µg/L, 21-day exposure): 42.26%
% inhibition, avr. (Daphnia magna; DNF 1.43 µg/L, 21-day exposure): 57.5%
#average live offspring (Daphnia magna; DNF 1.43 µg/L, 21-day exposure, per surviving mother): 31
#total live offspring (Daphnia magna; DNF 1.43 µg/L, 21-day exposure, sum of all vessels): 276
body burden (Daphnia magna; CW = 1.4 μg L^–1): 6.9 mg kg^–1
removed fraction of accumulated body burden (Daphnia magna): at least 99.57%
#average live offspring (depuration phase) (Daphnia magna; [5]): 64
%offspring mortality (depuration phase) (Daphnia magna; [5]): 3.38%
#total live offspring (depuration phase) (Daphnia magna; after DNF 1.43 µg/L exposure, 12-day depuration phase, sum of all vessels): 257
observation of mother animal (depuration phase) (Daphnia magna; after DNF 1.43 µg/L exposure, vessel 8, depuration day 3): dead

Reference: article PMC12080252, “Daphnia magna as an Alternative Model for (Simultaneous) Bioaccumulation and Chronic Toxicity Assessment—Controlled Exposure Study Indicates High Hazard of Heterocyclic PAHs” (Environmental Science & Technology, 2025)
